Our source for the Activity values is ChEMBL document CHEMBL2073887, “Hepatobiliary transport kinetics of HSR-903, a new quinolone antibacterial agent” (Drug Metab Dispos, 1998).

For data set [1], the target named is T1, ATP-binding cassette sub-family C member 2 (Rattus norvegicus, UniProt Q63120). The experiment in a line: TP_TRANSPORTER: biliary excretion in EHBR rat. It is filed as functional, organism-based, Bile. To be noted: in vivo.
In data set [2] the target is T1, ATP-binding cassette sub-family C member 2. As to the kind of experiment: TP_TRANSPORTER: biliary excretion in SD rat. It is filed as functional, organism-based, Sprague-Dawley, Bile. The following applies: in vivo.

T1 sequence (Q63120 whole entry): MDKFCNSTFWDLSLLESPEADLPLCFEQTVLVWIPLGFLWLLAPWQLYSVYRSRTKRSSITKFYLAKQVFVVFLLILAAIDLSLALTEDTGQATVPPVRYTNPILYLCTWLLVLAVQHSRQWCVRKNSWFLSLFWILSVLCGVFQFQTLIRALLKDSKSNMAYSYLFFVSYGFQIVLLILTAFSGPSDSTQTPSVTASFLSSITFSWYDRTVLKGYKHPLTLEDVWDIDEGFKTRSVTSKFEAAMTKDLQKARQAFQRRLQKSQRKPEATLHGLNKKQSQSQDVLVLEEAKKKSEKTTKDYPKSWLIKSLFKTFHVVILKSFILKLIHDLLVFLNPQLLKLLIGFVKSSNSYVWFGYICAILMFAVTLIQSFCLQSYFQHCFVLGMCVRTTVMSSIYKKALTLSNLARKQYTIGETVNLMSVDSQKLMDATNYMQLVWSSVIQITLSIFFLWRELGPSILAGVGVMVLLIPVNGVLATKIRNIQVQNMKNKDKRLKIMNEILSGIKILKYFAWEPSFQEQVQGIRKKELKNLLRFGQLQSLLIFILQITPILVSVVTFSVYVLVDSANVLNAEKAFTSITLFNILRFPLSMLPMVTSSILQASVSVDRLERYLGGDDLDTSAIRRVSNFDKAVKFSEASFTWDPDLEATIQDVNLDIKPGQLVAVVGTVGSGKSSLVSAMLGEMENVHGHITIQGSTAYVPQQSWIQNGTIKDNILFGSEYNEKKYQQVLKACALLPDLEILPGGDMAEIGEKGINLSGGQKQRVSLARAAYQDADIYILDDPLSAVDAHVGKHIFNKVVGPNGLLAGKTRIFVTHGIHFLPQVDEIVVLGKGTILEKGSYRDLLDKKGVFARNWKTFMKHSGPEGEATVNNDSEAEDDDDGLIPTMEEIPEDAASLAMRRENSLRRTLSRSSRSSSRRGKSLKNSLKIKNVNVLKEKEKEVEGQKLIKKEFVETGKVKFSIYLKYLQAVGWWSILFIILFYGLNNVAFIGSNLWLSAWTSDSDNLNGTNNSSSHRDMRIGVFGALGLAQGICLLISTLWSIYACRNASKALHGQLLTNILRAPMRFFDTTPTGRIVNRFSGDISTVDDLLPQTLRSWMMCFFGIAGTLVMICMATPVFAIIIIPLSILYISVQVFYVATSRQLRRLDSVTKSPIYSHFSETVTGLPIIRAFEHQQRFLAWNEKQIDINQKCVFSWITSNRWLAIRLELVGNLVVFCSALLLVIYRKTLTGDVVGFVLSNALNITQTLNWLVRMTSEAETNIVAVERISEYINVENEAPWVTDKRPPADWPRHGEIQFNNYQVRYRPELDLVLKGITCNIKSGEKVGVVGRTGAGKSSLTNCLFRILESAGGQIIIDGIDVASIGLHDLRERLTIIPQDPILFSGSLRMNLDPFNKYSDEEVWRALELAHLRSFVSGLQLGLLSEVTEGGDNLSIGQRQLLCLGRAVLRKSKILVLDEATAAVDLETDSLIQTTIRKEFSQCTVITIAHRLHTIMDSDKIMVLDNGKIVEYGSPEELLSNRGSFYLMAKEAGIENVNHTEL

Take `CS(=O)(=O)O.Cc1c(N2C[C@@H](N)C3(CC3)C2)c(F)c(N)c2c(=O)c(C(=O)O)cn(C3CC3)c12`: the Activity result in data set [1] and in data set [2] was “substrate [+]” in each case.
